Data from patent US12642771B2, “Compositions comprising PGI2-receptor agonists and processes for the preparation thereof” (Arena Pharmaceuticals, Inc., priority 2017, dated 2026).

Test: Release (dissolution) profile of capsules, USP Apparatus 2 (paddle) at 50 rpm, 500 mL aqueous sodium phosphate 0.05 M, pH 6.8
Format: physicochemical
Conditions: for Release rate (percentage of Compound 1 released): Table 3b; for mean value (n =4) of % of Compound 1 released: Table 3g-1, Storage Time = 0; for mean value (n =4) of % of Compound 1 released / mean value (n = 41) of % of Compound 1 released: size 4 capsule 0.5 mg Compound 1, Poloxamer 188:food grade GMS 70:30; for mean value (n = 41) of % of Compound 1 released: Table 3g-2 first line (title: Storage Time = 2 weeks; values equal Table 3g-1)
From the text: USP Apparatus 2 (Paddle Apparatus) is described, for example, in the United States Pharmacopeial Convention, Feb. 1, 2012, Chapter <711> (“Dissolution”), incorporated by reference herein in its entirety. See http://www.usp.org/sites/default/files/usp_pdf/EN/USPNF/revisions/m99470-gc_711.pdf. The assembly from Apparatus 1 is used, except that a paddle formed from a blade and a shaft is used as the stirring element. The shaft is positioned so that its axis is not more than 2 mm from the vertical axis of the vessel at any point and rotates smoothly without significant wobble that could affect the results. The vertical center line of the blade passes through the axis of the shaft so that the bottom of the blade is flush with the bottom of the shaft. A distance of 25±2 mm between the bottom of the blade and the inside bottom of the vessel is maintained during the test. The metallic or suitably inert, rigid blade and shaft comprise a single entity. A suitable two-part detachable design may be used provided the assembly remains firmly engaged during the test. The paddle blade and shaft may be coated with a suitable coating so as to make them inert. The dosage unit is allowed to sink to the bottom of the vessel before rotation of the blade is started. A small, loose piece of nonreactive material, such as not more than a few turns of wire helix, may be attached to dosage units that would otherwise float. Other validated sinker devices may be used.
Unless otherwise specified, the release profiles for capsules were measured using USP Apparatus 2 (paddle).
All release profiles disclosed in Tables 3c-3p were measured with USP Apparatus 2 (paddle) at 50 rpm in 500 mL of aqueous sodium phosphate at a concentration of 0.05 M (pH=6.8). The values in a given table relate to capsules obtained from the same batch. Values shown represent mean values over a number of dissolution tests (“n” in each table) in each case.

SMILES: O=C(O)COC[C@H]1CC[C@H](COC(=O)N(c2ccccc2)c2ccc(Cl)cc2)CC1 [Compound 1, 2-(((1r,4r)-4-(((4-chlorophenyl)(phenyl)carbamoyloxy)methyl)cyclohexyl)methoxy)acetic acid]
- Release rate (percentage of Compound 1 released) (capsule 0.04 mg Compound 1, Poloxamer 188:food grade GMS 50:50, 4 wks storage (40° C.), 480 min): 90.9%
- Release rate (percentage of Compound 1 released) (capsule 0.04 mg Compound 1, Poloxamer 188:food grade GMS 50:50, 4 wks storage (40° C.), 600 min): 93.2%
- Release rate (percentage of Compound 1 released) (capsule 0.04 mg Compound 1, Poloxamer 188:food grade GMS 50:50, 4 wks storage (40° C.), 720 min): 95.0%
- Release rate (percentage of Compound 1 released) (capsule 0.04 mg Compound 1, Poloxamer 188:food grade GMS 50:50, 4 wks storage (40° C.), 735 min): 94.3%
- Release rate (percentage of Compound 1 released) (capsule 0.04 mg Compound 1, Poloxamer 188:food grade GMS 50:50, 18 hrs curing (50° C.), 30 min): 14.3%
- Release rate (percentage of Compound 1 released) (capsule 0.04 mg Compound 1, Poloxamer 188:food grade GMS 50:50, 18 hrs curing (50° C.), 60 min): 21.8%
- Release rate (percentage of Compound 1 released) (capsule 0.04 mg Compound 1, Poloxamer 188:food grade GMS 50:50, 18 hrs curing (50° C.), 120 min): 39.9%
- Release rate (percentage of Compound 1 released) (capsule 0.04 mg Compound 1, Poloxamer 188:food grade GMS 50:50, 18 hrs curing (50° C.), 180 min): 56.3%
- Release rate (percentage of Compound 1 released) (capsule 0.04 mg Compound 1, Poloxamer 188:food grade GMS 50:50, 18 hrs curing (50° C.), 240 min): 72.6%
- Release rate (percentage of Compound 1 released) (capsule 0.04 mg Compound 1, Poloxamer 188:food grade GMS 50:50, 18 hrs curing (50° C.), 360 min): 89.2%
- Release rate (percentage of Compound 1 released) (capsule 0.04 mg Compound 1, Poloxamer 188:food grade GMS 50:50, 18 hrs curing (50° C.), 480 min): 93.5%
- Release rate (percentage of Compound 1 released) (capsule 0.04 mg Compound 1, Poloxamer 188:food grade GMS 50:50, 18 hrs curing (50° C.), 600 min): 95.7%
- Release rate (percentage of Compound 1 released) (capsule 0.04 mg Compound 1, Poloxamer 188:food grade GMS 50:50, 18 hrs curing (50° C.), 720 min): 96.9%
- Release rate (percentage of Compound 1 released) (capsule 0.04 mg Compound 1, Poloxamer 188:food grade GMS 50:50, 18 hrs curing (50° C.), 735 min): 95.6%
- Release rate (percentage of Compound 1 released) (capsule 0.04 mg Compound 1, Poloxamer 188:food grade GMS 50:50, T = 0 (pre-curing), 30 min): 11.0%
- Release rate (percentage of Compound 1 released) (capsule 0.04 mg Compound 1, Poloxamer 188:food grade GMS 50:50, T = 0 (pre-curing), 60 min): 18.3%
- Release rate (percentage of Compound 1 released) (capsule 0.04 mg Compound 1, Poloxamer 188:food grade GMS 50:50, T = 0 (pre-curing), 120 min): 30.1%
- Release rate (percentage of Compound 1 released) (capsule 0.04 mg Compound 1, Poloxamer 188:food grade GMS 50:50, T = 0 (pre-curing), 180 min): 39.6%
- Release rate (percentage of Compound 1 released) (capsule 0.04 mg Compound 1, Poloxamer 188:food grade GMS 50:50, T = 0 (pre-curing), 240 min): 48.8%
- Release rate (percentage of Compound 1 released) (capsule 0.04 mg Compound 1, Poloxamer 188:food grade GMS 50:50, T = 0 (pre-curing), 360 min): 64.1%
- Release rate (percentage of Compound 1 released) (capsule 0.04 mg Compound 1, Poloxamer 188:food grade GMS 50:50, T = 0 (pre-curing), 480 min): 72.7%
- Release rate (percentage of Compound 1 released) (capsule 0.04 mg Compound 1, Poloxamer 188:food grade GMS 50:50, T = 0 (pre-curing), 600 min): 79.8%
- Release rate (percentage of Compound 1 released) (capsule 0.04 mg Compound 1, Poloxamer 188:food grade GMS 50:50, T = 0 (pre-curing), 720 min): 83.1%
- Release rate (percentage of Compound 1 released) (capsule 0.04 mg Compound 1, Poloxamer 188:food grade GMS 50:50, T = 0 (pre-curing), 735 min): 84.6%
- mean value (n =4) of % of Compound 1 released (30 min): 33.0%
- mean value (n =4) of % of Compound 1 released (45 min): 64.2%
- mean value (n =4) of % of Compound 1 released (60 min): 86.0%
- mean value (n = 41) of % of Compound 1 released (30 min): 33.0%
- mean value (n = 41) of % of Compound 1 released (45 min): 64.2%
- mean value (n = 41) of % of Compound 1 released (60 min): 86.0%
- release profile after curing and storage (capsule 0.04 mg Compound 1, Poloxamer 188:food grade GMS 50:50, cured 18 hours, one, two and four weeks post-curing (FIG. 6)): remained substantially the same
- stabilisation of release profile by curing (capsule with research grade GMS (lower monoester content) instead of food grade GMS): curing was not as effective in stabilizing the release profile
- release rate relative to immediate-release composition (capsules 0.5 mg Compound 1, Poloxamer 188:food grade GMS 70:30, 50:50 and 30:70 (FIGS. 8-10)): slower rate than the immediate-release composition
